This is an account of results in patent publication US6379649B1, “Imidazo(1,2-a)pyridines as peripheral benzodiazepine receptor binding agents” (Australian Nuclear Science & Technology Organisation, priority 1998, dated 2002).

The structures appear in SMILES notation. Like-named read-outs stand apart in the source and are kept apart here.

Data set [1] has as its target central benzodiazepine receptor. The data set can be described thus: In vitro binding assay for central benzodiazepine receptors ([^3H]-Ro 15-1788, rat cortex membranes). To be noted: rat cortex membrane / rat brain homogenates, [^3H]-Ro 15-1788 2 nM, 25° C., 45 minutes; read-out: IC50 (nM) CBR. The procedure: In Vitro Binding Assays for Central Benzodiazepine Receptors
Male Sprague Dawley rats are sacrificed by CO2 administration followed by cervical dislocation. Cortex is removed and placed in 20 volumes of ice-cold buffer ([…] Tris-HCl, pH 7.4) and minced finely with scissors. After homogenising the preparation will a polytron (PCU Kinematica, Bioblock, Switzerland) with one 10-second burst at a setting of 6, the suspension is centrifuged at 20,000 g for 20 minutes at 4° C. The pellets are resuspended in the previous buffer with a dounce (manual homogeniser). After the second centrifugation, the pellet is suspended in a final buffer (50 nM Tris/HCl, 0.32M sucrose, pH 7.4) to yield an appropriate protein concentration. Protein measurements are made by Lowry's method using bovine serum albumin as standard.
Non-specific binding is determined by blocking with cold Flumazenil (20 μM). Incubation is terminated by rapid filtration through Whatman GF/B glass fiber. Each sample tube and filter is immediately washed with 3 aliquots of 5 mL ice-cold […] Tris/HCl at pH 7.4. Filters are counted with a β-scintillation counter (Packard) to measure the amount of bound radioactivity. Ki and IC50 are calculated by EBDA/Ligand, iterative non-linear least squares curve-fitting programs (G. A. McPherson, J. Pharmacol. Methods 14, 213-228 (1985)).

Data set [2] has as its target T1, peripheral benzodiazepine receptor (Rattus norvegicus, UniProt P16257). The data set can be described thus: In vitro binding assay for peripheral benzodiazepine receptors ([^3H]-PK11195, rat kidney membranes). Also on record: diluted kidney membrane preparation; from tissue; host or cells: rat kidney membranes (Sprague Dawley). The procedure: In Vitro Binding Assays for Peripheral Benzodiazepine Receptors
Male Sprague Dawley rats are sacrificed by CO2 administration followed by cervical dislocation. Kidneys are removed and placed in 20 volumes of ice-cold buffer ([…] Tris-HCl, pH 7.4) and minced finely with scissors. After homogenising the preparation with a polytron (PCU Kintematica, Bioblock, Switzerland) with one 10-second burst at a setting of 10, the suspension is centrifuged at 49,000 g for 15 minutes at 4° C. The pellets are resuspended in the previous buffer with a dounce (manual homogeniser) to yield an appropriate protein concentration. Protein measurements are made by Lowry's method using bovine serum albumin as standard.
Non-specific binding is determined by blocking with cold PK11195 (10 μM). Incubation is terminated by rapid filtration through Whatman GF/B glass fiber. Each sample tube and filter is immediately washed with 3 aliquots of 5 mL ice-cold […] Tris/HCl at pH 7.4. Filters are counted with a β-scintillation counter (Packard) to measure the amount of bound radioactivity. Ki and IC50 are calculated by EBDA/Ligand, iterative non-linear least squares curve-fitting programs.

The target in data set [3] is T1, peripheral benzodiazepine receptor. Description: Pretreatment (blocking) of uptake of radiolabelled compounds in rats. Type of data set: in vivo. More on the design: high uptake in the tissues which have known PBR sites; from tissue; host or cells: living rats; organs with PBR sites. To be noted: pretreatment with unlabelled substance (1 mg/kg).

Take `CNC(=O)Cc1c(-c2ccc(F)cc2)nc2ccc(Cl)cn12` [B]: the melting point was 254 to 256 °C. Also, the IC50 in data set [1] was found to be 5.9 nM. For the same compound, the 50% inhibitory concentration (IC50) in data set [2] was more than 1000 nM.

For `CNC(=O)Cc1c(-c2ccc(I)cc2)nc2ccc(Cl)cn12` [Example 1, 6-chloro-2-(4′-iodophenyl)-imidazol[1,2-a]pyridine-3-(N-methyl)acetamide], the melting point is 308 to 310 °C. Besides, the half-inhibitory concentration (IC50) in data set [1] is more than 1000 nM. The IC50 in data set [2] worked out at 0.99 nM.

For `CCN(CC)C(=O)Cc1c(-c2ccc(I)cc2)nc2ccc(Cl)cn12` [Example 3, 6-chloro-2-(4′-iodophenyl)-imidazo[1,2-a]pyridine-3-(N,N-diethyl)acetamide], the IC50 is more than 1000 nM in data set [1] and less than 0.01 nM in data set [2].

`CCOC(=O)c1ncn2c1CN(C)C(=O)c1cc(F)ccc1-2` [Flumazenil]: the “effect of pretreatment on uptake of activity of the radiolabelled compounds in the tissues of interest” value (“effect of pretreatment” below) in data set [3] is listed as “only marginally”.

Regarding `CN(C)C(=O)Cc1c(-c2ccc(Cl)cc2)nc2ccc(Br)cn12` [D], the melting point lay within 234 to 236 °C. In addition, the concentration for half-maximal inhibition (IC50) in data set [1] was 56.5 nM. The half-maximal inhibitory concentration (IC50) in data set [2] came to 90 nM.

As for `CCCCN(CCCC)C(=O)Cc1c(-c2ccc(I)cc2)nc2ccc(Cl)cn12` [Example 7, 6-chloro-2-(4′-iodophenyl)-imidazo[1,2-a]pyridine-3-(N,N-dibutyl)-acetamide], the melting point fell in the range of 250 to 252 °C. The IC50 in data set [1] is more than 1000 nM. The compound further came in with an IC50 in data set [2] of 177 nM.

`CCCN(CCC)C(=O)Cc1c(-c2ccc(I)cc2)nc2ccc(Cl)cn12` [Example 5, 6-chloro-2-(4′-iodophenyl)-imidazo[1,2-a]pyridine-3-(N,N-dipropyl)-acetamide]: the melting point was 152 to 153 °C. In data set [1], the 50% inhibitory concentration (IC50) was more than 1000 nM. In data set [2], this compound came in with a concentration for half-maximal inhibition (IC50) of 3.91 nM.

In the case of `Cc1ccc2nc(-c3ccc(I)cc3)c(CC(=O)N(C)C)n2c1` [E, 6-methyl-2-(4′-iodophenyl)imidazo[1,2-a]pyridine-3-(N,N-dimethyl)acetamide, reference compound], the IC50 in data set [1] was 155 nM; in data set [2], 176 nM.

`CNC(=O)Cc1c(-c2ccc(Cl)cc2)nc2ccc(Br)cn12` [C]: the melting point was 298 to 300 °C. The IC50 in data set [1] is 15 nM. This compound also gave an IC50 in data set [2] of 33 nM.

Take `CCC(C)N(C)C(=O)c1cc2ccccc2c(-c2ccccc2Cl)n1` (stereo not drawn) [PK 11195, 1-(2-chlorophenyl)-N-methyl-N-(1-methylpropyl)-3-isoquinolinecarboxamide]: the “effect of pretreatment” value in data set [3] is recorded as “significantly reduced”.

In turn, `CN(C)C(=O)Cc1c(-c2ccc(I)cc2)nc2ccc(Cl)cn12` [Example 2] showed a melting point of 216 to 218 °C. Also, the half-maximal inhibitory concentration (IC50) in data set [1] is 168 nM. In addition, the IC50 in data set [2] was found to be 2.3 nM.

Consider `CCCCN(C)C(=O)Cc1c(-c2ccc(I)cc2)nc2ccc(Cl)cn12` [Example 6, 6chloro-2-(4′-iodophenyl)-imidazo[1,2-a]pyridine-3-(N-methyl, N-butyl)-acetamide], for which the IC50 in data set [1] is more than 1000 nM; in data set [2] (rat kidney membrane, [^3H]-PK11195 2 nM, 4° C., 1 hour, read-out: IC50 (nM) PBR) it was 266 nM.

Compound `CCCN(C)C(=O)Cc1c(-c2ccc(I)cc2)nc2ccc(Cl)cn12` [Example 4, 6-chloro-2-(4′-iodophenyl)-imidazo[1,2-a]pyridine-3-(N-methyl, N-propyl)-acetamide] yielded a melting point of 170 to 172 °C. Besides, the half-inhibitory concentration (IC50) in data set [1] was found to be 117 nM. Moreover, in data set [2], the IC50 amounted to 0.98 nM.

For `CN1C(=O)CN=C(c2ccccc2)c2cc(Cl)ccc21` [Diazepam], the “effect of pretreatment” value in data set [3] was “only marginally”.

Regarding `NC(=O)Cc1c(-c2ccc(F)cc2)nc2ccc(Cl)cn12` [Comparative Example A], the melting point lay within 250 to 252 °C. Also, the concentration for half-maximal inhibition (IC50) in data set [1] stood at 170 nM. In data set [2], this compound displayed an IC50 of 3340 nM.

What is called IC50 is the concentration needed to halve the response being measured. By melting point is commonly meant the temperature, or range, at which the solid turns liquid.
